Measurements: PubChem BioAssay (NCI)
Values joined by “and” are separate entries in the source; they are usually repeats but may differ in a detail not shown here. Equal entries are not always repeated.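 These data come from cells grown in 96-well plates and exposed to compound for 48 hours at five concentrations. The concentration for 50% growth inhibition is given as GI50. TGI denotes the concentration required for complete inhibition of growth.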

Legend:
Assay in all cases: growth of human tumour cells (NCI), 48 h
[1] = tested on: HOP-92 NSCLC
[2] = tested on: OVCAR-3 ovarian
[3] = tested on: SF-295 CNS
[4] = tested on: SK-MEL-2 melanoma
[5] = tested on: NCI-H23 lung
[6] = tested on: COLO 205 colon
[7] = tested on: ACHN renal
[8] = tested on: MALME-3M melanoma
[9] = tested on: SW-620 colon
[10] = tested on: SK-MEL-5 melanoma

| Structure (SMILES) | TGI [1] [µM] | TGI [2] | TGI [3] | TGI [4] | TGI [5] [µM] | TGI [6] | TGI [7] [µM] | TGI [8] | TGI [9] [µM] | TGI [10] | GI50 [1] [µM] | GI50 [2] [µM] | GI50 [3] [µM] | GI50 [4] [µM] | GI50 [5] [µM] | GI50 [6] [µM] | GI50 [10] [µM] | GI50 [7] [µM] | GI50 [9] [µM] | GI50 [8] [µM] |
| --- | --- | --- | --- | --- | --- | --- | --- | --- | --- | --- | --- | --- | --- | --- | --- | --- | --- | --- | --- | --- |
| COc1ccc(C(=O)C(c2ccc(OC)cc2)C2(O)C(=O)Nc3ccc([N+](=O)[O-])cc32)cc1 (stereo not given) | > 100 | > 100 µM | > 100 µM | > 100 µM | > 100 | > 100 µM | > 100 | > 100 µM | > 100 |  |  |  |  |  |  |  |  |  |  |  |
| NC(=O)NC1C(c2ccccc2)=C1c1ccccc1 | 38.1 | 82.9 µM | 54.6 µM |  | 61.4 | 27.9 µM | 31.2 | 61 µM | 37.5 | 23.6 µM |  |  |  |  |  |  |  |  |  |  |
| COc1ccc2c3c([nH]c2c1[N+](=O)[O-])C(C)=NCC3 |  | > 100 µM | > 100 µM | > 100 µM |  | > 100 µM | > 100 |  | > 100 |  |  |  |  |  |  |  |  |  |  |  |
| CC1=NNC(=O)C2CCC(=O)N12 (stereo not given) |  | > 100 µM |  | > 100 µM |  | > 100 µM | > 100 | > 100 µM | > 100 | > 100 µM |  |  |  |  |  |  |  |  |  |  |
| COc1cc(C2CC(c3cccc(Br)c3)=NN2C(C)=O)cc(OC)c1OC (stereo not given) | 83.8 | 0.61 µM | 16.3 µM | 55.5 µM | > 81.3 | 0.802 µM | > 84.4 |  | > 100 | 14.9 µM | 17 | 0.158 | 0.238 | 3.51 | 1.66 | 0.256 | 0.289 | 0.71 | 0.309 |  |
| N#Cc1nc(Nc2cccc3ccccc23)sc1N | 52.3 | > 100 µM | > 100 µM | 79.2 µM | 47.2 | 81.5 µM | 75.3 | > 100 µM | > 100 |  |  |  |  |  |  |  |  |  |  |  |
| O=C(OC(CNc1cc(=O)n(Cc2ccccc2)c(=O)n1Cc1ccccc1)CN1CCCC1)c1ccccc1 (stereo not given) |  | > 100 µM | > 100 µM | > 100 µM | > 100 | > 100 µM | > 100 | > 100 µM | > 100 | > 100 µM |  | > 100 | > 100 | > 100 | > 100 | > 100 | > 100 | > 100 | > 100 | > 100 |
| Cn1c2c(c3ccccc31)C1CCCCCCC1C1C(=O)OC(=O)C21 (stereo not given) |  | 47.8 µM | > 100 µM |  | > 100 | > 100 µM | > 100 | 69 µM | > 100 | > 100 µM |  |  |  |  |  |  |  |  |  |  |
| S=C1NC2(CCCCCC2)NN1c1ccccc1 | > 100 | > 100 µM | > 100 µM |  | > 100 | 0.431 µM | > 100 | > 100 µM | > 100 | > 100 µM |  |  |  |  |  |  |  |  |  |  |
| O=C(CCn1[nH]c(=O)c(Cl)c(Cl)c1=O)NO |  | > 100 µM | > 100 µM | > 100 µM | > 100 | > 100 µM | > 100 | > 100 µM | > 100 | > 100 µM |  |  |  |  |  |  |  |  |  |  |
| Cn1c2ccccc2c2c3c(c4c5cc(Br)ccc5n(C)c4c21)C(=O)N(O)C3=O |  |  | 0.981 µM | > 100 µM |  |  | 0.124 | > 100 µM | > 100 | 0.403 µM | 0.18 |  | 0.217 | > 48.2 |  |  | 0.129 | 0.0346 | 0.127 | 0.494 |
| Cc1nn(-c2ccccc2)c2nc(N3CCOCC3)nnc12 |  | > 100 µM | > 100 µM | > 100 µM | > 100 | > 100 µM | > 100 | > 100 µM | > 100 | > 100 µM |  |  |  |  |  |  |  |  |  |  |
| NC(=Nc1c([N+](=O)[O-])cnc2ccccc12)N1CCOCC1 |  | > 100 µM | > 100 µM | > 100 µM | > 100 | > 100 µM | > 100 |  | > 100 | > 100 µM |  |  |  |  |  |  |  |  |  |  |
| Cc1cc(N)c(C)c2c1[nH]c1ccc(O)cc12 |  | > 100 µM | > 100 µM | > 100 µM | > 100 | > 100 µM | > 100 | > 100 µM | > 100 |  |  |  |  |  |  |  |  |  |  |  |
| Cn1cc(CO)c2c1C(=O)C=C(N1CC1)C2=O | 4 | 0.0375 µM |  |  | < 0.0215 |  | 0.0102 |  | > 31.6 | < 0.01 µM | 0.898 | < 0.0133 | < 0.01 |  | < 0.01 | < 0.0187 | < 0.01 | < 0.01 | < 0.01 |  |
| Cc1nc2c(-c3cnc(N)nc3)nc(N3CCOCC3)nc2n1C(C)C |  | 1.64 µM and 1.92 µM | 0.888 µM and 0.406 µM | 0.733 µM and 0.688 µM |  | 1.1 µM and 3.68 µM | > 100 | 0.46 µM and 0.225 µM | > 100 | 0.9 µM and 0.652 µM |  |  |  |  |  |  |  |  |  |  |
| Cc1ccc(NC(=O)C(=O)C(C(=O)c2ccc3ccccc3c2)C2OC(=O)c3ccccc32)cc1C (stereo not given) | 40.6 | 48.6 µM |  | 36.3 µM | 18 | 32.6 µM | > 100 | 57.8 µM | 63.7 | 30 µM |  |  |  |  |  |  |  |  |  |  |
| C=C1C(=O)O[C@@H]2C[C@@H]1CC/C(C)=C/CC/C(C)=C/CC[C@@]2(C)O | 19.8 | 18.7 µM | 32.2 µM | 12.5 µM | 16.2 | 99.2 µM | 28.1 |  | 52.5 | 36.4 µM | 3.96 | 5.59 | 16.6 | 2.69 | 4.14 | 34.1 | 16.2 | 13 | 25.3 |  |
| CC(C)c1ccccc1NC(=O)CCc1n[nH]c(=S)o1 | > 100 | > 100 µM | > 100 µM |  | > 100 | 58.3 µM | > 100 | > 100 µM | > 56 | > 100 µM |  |  |  |  |  |  |  |  |  |  |
| CN(C)N=Nc1ccc(NC=O)cc1 | > 100 | > 100 µM | > 100 µM | > 100 µM |  | > 100 µM | > 100 |  | > 100 | > 100 µM |  |  |  |  |  |  |  |  |  |  |
| COc1ccc(C2C(Cl)C(=O)N2n2cnc3ccccc3c2=O)cc1 (stereo not given) |  | > 100 µM | > 100 µM | > 100 µM | > 100 | > 100 µM | > 100 | > 100 µM | > 100 | > 100 µM |  |  |  |  |  |  |  |  |  |  |
